According to patent US20240209001A1, “HETEROCYCLIC DERIVATIVES AS JANUS KINASE INHIBITORS” (CHIESI FARMACEUTICI S.P. A., priority 2021, published 2024):

Columns and labels:
[1] = target: JAK 1 (Homo sapiens (Human), UniProt P23458); assay: Biochemical potency on JAK1, TR-FRET LANCE Ultra kinase assay (compounds 1-92); details: ATP at Km, read-out: JAK1 inhibitory activity (pIC50 class) (converted)
Protocol: (§1) Biochemical Potency on JAK1, JAK2, JAK3 and Tyk2 Assay Principle The objective of this study was to assess the capability of compounds to inhibit all 4 JAK isoforms activity in a cell-free environment. Assay for JAK 1, JAK 2, JAK 3 and TYK2 were performed by Time-resolved fluorescence resonance energy transfer (TR-FRET) technology. It consists in the interaction of two labelled binding partners detected by the energy transfer from an excited donor to an acceptor dye and measurement of light emission by the acceptor dye. LANCE Ultra kinase assay was used. In presence of JAK 1, JAK 2, JAK 3 and TYK2 kinases and ATP (corresponding to Km), the ULight peptide substrate (LANCE Ulight-JAK-1 ([…]) Peptide, Perkin Elmer, TRF0121) is phosphorylated. It is then captured by Eu-anti-phospho-substrate antibody (LANCE Eu-W1024 Anti-phosphotyrosine (PT66), Perkin Elmer, AD0069), which bring the Eu-chelate donor and ULight acceptor dyes into close proximity. Upon excitation at 320 nm, the Eu-chelate transfers its energy to the ULight dye, resulting in a fluorescent light emission at 665 nm. Compound Testing Serial dilutions of compounds in pure DMSO are prepared from 10 mM DMSO stock solutions. Compounds were tested in 384-well plate for 11 consecutive 5-fold dilutions starting from 20 μM highest concentration (20 μM-[…]). 200 nL of compound were transferred from mother plate to test plate by using Mosquito (TTP labtech). Assay was performed in 384-well Perkin Elmer test plate in 20 μL assay volume (kinase reaction) and 40 μL total volume (stopping reagent and antibody detection reagents). In 10 μL of substrate solution (peptide+ATP) 30/50/20/10 nM of peptide and 20/0.7/0.2/12 μM of ATP were added for JAK 1, JAK 2, JAK 3 and TYK2 respectively. 10 μL of enzyme solution was added to kinase reaction at these concentrations: 0.15/0.083/0.025/0.144 ng/μL of JAK 1, JAK 2, JAK 3 and TYK2 respectively. After shaking and 1.5 h of incubation at r.t., 20 μL of Stop (10 μL EDTA) and Detection mixture (10 μL Europium-anti-phospho antibody, final: 0.5 nM) were added. Reading was performed after 1 h of incubation on a EnVision 2104 reader (Perkin Elmer). Calculation of IC50 data, curves and QC analysis was performed by using Excel tool and GraphPadPrism software, v9. Briefly, individual concentration-effect curves are generated by plotting the logarithm of the tested concentration of tested compounds (X) vs. corresponding percent inhibition values (Y) using least squares (ordinary) fit. Best fit IC50 values are calculated using Log(inhibitor) vs. normalized response-Variable slope equation, where Y=100/(1+10^((Log IC50-X)*HillSlope)). QC criteria parameters (Z', S:B, R2, HillSlope) were checked for every IC50 curve. Calculation of IC50 data, curves and QC analysis were made using Excel tools and GraphPadPrism software. QC criteria parameters: Z'≥0.5, Hill Slope range 0.5 to 5, S:B>2.

[2] = target: JAK 2 (Homo sapiens (Human), UniProt O60674); assay: Biochemical potency on JAK2, TR-FRET LANCE Ultra kinase assay (compounds 1-92); details: ATP at Km, read-out: JAK2 inhibitory activity (pIC50 class) (converted)
Protocol: as §1

[3] = target: JAK 3 (Homo sapiens (Human), UniProt P52333); assay: Biochemical potency on JAK3, TR-FRET LANCE Ultra kinase assay (compounds 1-92); details: ATP at Km, read-out: JAK3 inhibitory activity (pIC50 class) (converted)
Protocol: as §1

[4] = target: TYK2 (Homo sapiens (Human), UniProt P29597); assay: Biochemical potency on Tyk2, TR-FRET LANCE Ultra kinase assay (compounds 1-92); details: ATP at Km, read-out: Tyk2 inhibitory activity (pIC50 class) (converted)
Protocol: as §1

Sequence of JAK 1 (P23458 whole entry, canonical isoform): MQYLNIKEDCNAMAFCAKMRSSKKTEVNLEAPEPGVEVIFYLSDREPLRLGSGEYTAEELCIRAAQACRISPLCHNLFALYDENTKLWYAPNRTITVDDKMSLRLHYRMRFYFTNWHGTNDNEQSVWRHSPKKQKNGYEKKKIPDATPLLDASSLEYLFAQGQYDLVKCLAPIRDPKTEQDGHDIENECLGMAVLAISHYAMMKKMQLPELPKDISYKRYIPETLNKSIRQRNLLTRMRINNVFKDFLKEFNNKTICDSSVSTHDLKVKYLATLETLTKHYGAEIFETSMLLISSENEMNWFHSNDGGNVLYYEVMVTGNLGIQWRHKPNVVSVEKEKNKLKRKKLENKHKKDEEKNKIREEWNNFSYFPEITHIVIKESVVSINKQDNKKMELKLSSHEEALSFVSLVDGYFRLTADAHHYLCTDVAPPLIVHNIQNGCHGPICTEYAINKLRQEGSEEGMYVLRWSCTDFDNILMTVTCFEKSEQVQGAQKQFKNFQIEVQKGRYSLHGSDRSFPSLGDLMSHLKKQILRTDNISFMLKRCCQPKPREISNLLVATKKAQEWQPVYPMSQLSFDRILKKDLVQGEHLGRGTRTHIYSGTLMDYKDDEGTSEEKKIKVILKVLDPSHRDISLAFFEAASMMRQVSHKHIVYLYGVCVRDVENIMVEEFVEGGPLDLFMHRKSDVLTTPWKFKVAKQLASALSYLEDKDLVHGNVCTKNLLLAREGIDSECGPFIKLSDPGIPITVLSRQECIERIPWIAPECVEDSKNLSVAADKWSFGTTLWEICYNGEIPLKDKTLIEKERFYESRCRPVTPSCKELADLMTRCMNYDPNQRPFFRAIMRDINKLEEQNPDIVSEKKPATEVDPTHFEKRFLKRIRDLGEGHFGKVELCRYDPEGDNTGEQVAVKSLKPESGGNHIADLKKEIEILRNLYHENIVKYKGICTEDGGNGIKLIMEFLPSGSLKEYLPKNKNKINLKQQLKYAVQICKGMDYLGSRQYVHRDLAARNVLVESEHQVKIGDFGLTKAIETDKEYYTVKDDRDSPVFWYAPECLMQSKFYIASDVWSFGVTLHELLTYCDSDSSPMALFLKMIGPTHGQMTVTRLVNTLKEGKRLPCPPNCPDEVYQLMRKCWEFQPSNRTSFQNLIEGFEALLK
Sequence of TYK2 (P29597 whole entry): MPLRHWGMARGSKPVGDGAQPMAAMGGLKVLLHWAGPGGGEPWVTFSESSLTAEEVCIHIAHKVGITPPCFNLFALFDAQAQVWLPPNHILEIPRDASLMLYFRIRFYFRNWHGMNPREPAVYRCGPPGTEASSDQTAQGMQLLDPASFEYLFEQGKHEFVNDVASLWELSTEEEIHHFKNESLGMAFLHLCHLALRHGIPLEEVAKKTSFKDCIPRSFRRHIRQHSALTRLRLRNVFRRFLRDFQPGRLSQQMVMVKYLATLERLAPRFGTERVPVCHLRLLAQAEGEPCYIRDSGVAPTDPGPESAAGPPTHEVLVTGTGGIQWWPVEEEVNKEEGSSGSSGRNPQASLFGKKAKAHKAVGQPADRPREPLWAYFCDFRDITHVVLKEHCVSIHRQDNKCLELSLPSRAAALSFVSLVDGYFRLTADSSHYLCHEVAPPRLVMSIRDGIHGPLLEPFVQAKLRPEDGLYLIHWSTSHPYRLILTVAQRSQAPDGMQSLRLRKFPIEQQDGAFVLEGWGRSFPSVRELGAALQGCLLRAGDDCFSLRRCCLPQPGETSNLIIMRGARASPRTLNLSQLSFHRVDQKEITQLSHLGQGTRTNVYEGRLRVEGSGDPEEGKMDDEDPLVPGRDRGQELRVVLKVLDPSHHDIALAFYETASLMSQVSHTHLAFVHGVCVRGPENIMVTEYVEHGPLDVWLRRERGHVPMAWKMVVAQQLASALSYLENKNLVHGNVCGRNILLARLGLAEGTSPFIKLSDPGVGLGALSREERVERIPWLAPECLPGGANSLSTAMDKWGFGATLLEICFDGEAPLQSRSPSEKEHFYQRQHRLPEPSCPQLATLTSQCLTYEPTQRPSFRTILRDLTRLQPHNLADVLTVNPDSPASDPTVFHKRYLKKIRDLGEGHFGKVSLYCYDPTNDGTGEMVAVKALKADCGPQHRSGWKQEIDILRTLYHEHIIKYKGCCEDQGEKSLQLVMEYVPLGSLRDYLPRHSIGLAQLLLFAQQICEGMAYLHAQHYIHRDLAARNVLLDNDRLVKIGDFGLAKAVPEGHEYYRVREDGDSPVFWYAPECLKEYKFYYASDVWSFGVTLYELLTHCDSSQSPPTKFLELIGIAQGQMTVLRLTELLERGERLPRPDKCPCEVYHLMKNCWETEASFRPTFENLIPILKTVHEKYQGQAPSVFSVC
Sequence of JAK 2 (O60674 whole entry): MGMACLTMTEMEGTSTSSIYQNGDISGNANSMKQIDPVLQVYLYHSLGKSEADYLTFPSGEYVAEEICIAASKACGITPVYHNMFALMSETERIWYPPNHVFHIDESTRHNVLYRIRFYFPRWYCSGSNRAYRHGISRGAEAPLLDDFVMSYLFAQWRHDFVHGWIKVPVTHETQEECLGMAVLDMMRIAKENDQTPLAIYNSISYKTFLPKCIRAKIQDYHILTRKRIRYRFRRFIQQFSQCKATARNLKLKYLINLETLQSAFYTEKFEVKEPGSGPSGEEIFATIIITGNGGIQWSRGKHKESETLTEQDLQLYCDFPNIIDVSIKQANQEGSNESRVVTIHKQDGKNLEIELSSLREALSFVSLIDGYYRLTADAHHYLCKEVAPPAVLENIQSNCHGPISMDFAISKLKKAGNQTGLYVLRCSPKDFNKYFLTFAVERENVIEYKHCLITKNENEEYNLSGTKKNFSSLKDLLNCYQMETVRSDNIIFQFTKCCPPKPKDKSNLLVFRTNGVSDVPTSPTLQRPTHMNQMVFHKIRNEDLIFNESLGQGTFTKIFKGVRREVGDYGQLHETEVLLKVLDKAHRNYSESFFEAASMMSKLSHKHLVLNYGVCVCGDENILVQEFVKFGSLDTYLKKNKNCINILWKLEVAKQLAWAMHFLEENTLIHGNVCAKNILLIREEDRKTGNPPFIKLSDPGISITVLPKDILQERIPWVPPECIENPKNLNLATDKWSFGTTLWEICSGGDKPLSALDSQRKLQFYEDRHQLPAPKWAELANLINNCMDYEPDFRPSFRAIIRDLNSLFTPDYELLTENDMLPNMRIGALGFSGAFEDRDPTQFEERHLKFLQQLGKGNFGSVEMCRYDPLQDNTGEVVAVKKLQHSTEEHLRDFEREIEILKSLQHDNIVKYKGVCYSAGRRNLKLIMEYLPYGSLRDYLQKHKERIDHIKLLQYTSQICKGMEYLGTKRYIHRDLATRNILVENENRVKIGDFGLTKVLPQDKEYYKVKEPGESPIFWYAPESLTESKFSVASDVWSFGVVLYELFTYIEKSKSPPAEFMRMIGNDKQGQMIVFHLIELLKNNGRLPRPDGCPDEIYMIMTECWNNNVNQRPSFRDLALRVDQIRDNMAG
Sequence of JAK 3 (P52333 whole entry): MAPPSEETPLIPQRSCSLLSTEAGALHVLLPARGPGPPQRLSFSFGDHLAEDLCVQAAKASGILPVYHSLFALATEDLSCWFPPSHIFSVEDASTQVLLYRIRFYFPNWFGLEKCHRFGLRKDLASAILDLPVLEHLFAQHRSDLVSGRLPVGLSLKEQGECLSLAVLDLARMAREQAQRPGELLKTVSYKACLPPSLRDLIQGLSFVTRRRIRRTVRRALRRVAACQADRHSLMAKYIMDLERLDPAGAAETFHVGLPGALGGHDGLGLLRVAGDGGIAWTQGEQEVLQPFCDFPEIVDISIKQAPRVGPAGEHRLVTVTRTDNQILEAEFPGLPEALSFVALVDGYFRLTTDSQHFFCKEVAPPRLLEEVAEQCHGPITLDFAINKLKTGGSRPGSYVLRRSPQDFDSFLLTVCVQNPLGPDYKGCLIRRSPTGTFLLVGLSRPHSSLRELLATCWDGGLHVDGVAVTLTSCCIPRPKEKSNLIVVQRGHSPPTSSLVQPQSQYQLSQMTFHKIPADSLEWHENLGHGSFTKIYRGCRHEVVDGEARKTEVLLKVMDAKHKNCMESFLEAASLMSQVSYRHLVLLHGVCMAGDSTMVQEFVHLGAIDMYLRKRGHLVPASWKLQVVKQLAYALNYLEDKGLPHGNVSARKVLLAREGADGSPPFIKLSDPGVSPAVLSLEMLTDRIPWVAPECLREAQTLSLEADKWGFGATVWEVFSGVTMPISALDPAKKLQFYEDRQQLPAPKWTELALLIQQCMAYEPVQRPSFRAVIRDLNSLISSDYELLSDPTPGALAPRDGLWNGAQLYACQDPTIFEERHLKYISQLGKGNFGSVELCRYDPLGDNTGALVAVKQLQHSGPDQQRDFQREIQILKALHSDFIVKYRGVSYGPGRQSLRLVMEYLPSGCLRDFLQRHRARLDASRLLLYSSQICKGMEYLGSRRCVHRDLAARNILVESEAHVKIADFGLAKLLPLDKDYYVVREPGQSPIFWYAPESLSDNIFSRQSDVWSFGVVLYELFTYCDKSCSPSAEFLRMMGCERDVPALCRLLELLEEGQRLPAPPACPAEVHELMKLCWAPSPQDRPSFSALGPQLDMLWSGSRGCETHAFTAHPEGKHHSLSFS

Compound	IC50 [1] [nM]	IC50 [2] [nM]	IC50 [3] [nM]	IC50 [4] [nM]
COc1cc(NS(C)(=O)=O)ccc1-n1nc(NCCN(C)C)c2cnc(-c3cnc4cccnn34)cc21 [Example 77, N-(4-(3-((2-(dimethylamino)ethyl)amino)-6-(imidazo[1,2-b]pyridazin-3-yl)-1H-pyrazolo[4,3-c]pyridin-1-yl)-3-methoxyphenyl)methanesulfonamide]	≤ 5.01	≤ 5.01	≤ 5.01	5.01 to 50.1
COc1cc(NS(C)(=O)=O)ccc1-n1nc(NCCN2CCCCC2)c2cnc(-c3cnn4cccnc34)cc21 [Example 37, N-(3-methoxy-4-(3-((2-(piperidin-1-yl)ethyl)amino)-6-(pyrazolo[1,5-a]pyrimidin-3-yl)-1H-pyrazolo[4,3-c]pyridin-1-yl)phenyl)methanesulfonamide]	≤ 5.01	≤ 5.01	≤ 5.01	5.01 to 50.1
Cc1nn(-c2ccc(CNS(C)(=O)=O)cc2OC(F)F)c2cc(-c3cnn4cccnc34)ncc12 [Example 61, N-(3-(difluoromethoxy)-4-(3-methyl-6-(pyrazolo[1,5-a]pyrimidin-3-yl)-1H-pyrazolo[4,3-c]pyridin-1-yl)benzyl)methanesulfonamide]	≤ 5.01	≤ 5.01	≤ 5.01	5.01 to 50.1
O=S(=O)(Nc1ccc(-n2nc(NCCN3CCOCC3)c3cnc(-c4cnn5cccnc45)cc32)c(OC(F)F)c1)C1CC1 [Example 25, N-(3-(difluoromethoxy)-4-(3-((2-morpholinoethyl)amino)-6-(pyrazolo[1,5-a]pyrimidin-3-yl)-1H-pyrazolo[4,3-c]pyridin-1-yl)phenyl)cyclopropanesulfonamide]	5.01 to 50.1	5.01 to 50.1	≤ 5.01	> 50.1
CCCS(=O)(=O)Nc1ccc(-n2nc(C(=O)NCCCN3CCOCC3)c3cnc(-c4cnn5cccnc45)cc32)c(OC)c1 [Example 47, 1-(2-methoxy-4-(propylsulfonamido)phenyl)-N-(3-morpholinopropyl)-6-(pyrazolo[1,5-a]pyrimidin-3-yl)-1H-pyrazolo[4,3-c]pyridine-3-carboxamide]	5.01 to 50.1	5.01 to 50.1	5.01 to 50.1	> 50.1
COc1cc(NS(=O)(=O)C2COC2)ccc1-n1nc(C)c2cnc(-c3cnn4cccnc34)cc21 [Example 8, N-(3-methoxy-4-(3-methyl-6-(pyrazolo[1,5-a]pyrimidin-3-yl)-1H-pyrazolo[4,3-c]pyridin-1-yl)phenyl)oxetane-3-sulfonamide]	≤ 5.01	≤ 5.01	≤ 5.01	5.01 to 50.1
COc1cc(NS(C)(=O)=O)ccc1-n1nc(NC(=O)C2CCN(C)CC2)c2cnc(-c3cnn4cccnc34)cc21 [Example 41, N-(1-(2-methoxy-4-(methylsulfonamido)phenyl)-6-(pyrazolo[1,5-a]pyrimidin-3-yl)-1H-pyrazolo[4,3-c]pyridin-3-yl)-1-methylpiperidine-4-carboxamide]	≤ 5.01	≤ 5.01	≤ 5.01	5.01 to 50.1
CNS(=O)(=O)c1ccc(-n2nc(C)c3cnc(-c4cnn5cccnc45)cc32)c(OC)c1 [Example 49, 3-methoxy-N-methyl-4-(3-methyl-6-(pyrazolo[1,5-a]pyrimidin-3-yl)-1H-pyrazolo[4,3-c]pyridin-1-yl)benzenesulfonamide]	5.01 to 50.1	≤ 5.01	≤ 5.01	> 50.1
CNS(=O)(=O)c1ccc(-n2nc(NCCN3CCOCC3)c3cnc(-c4cnn5cccnc45)cc32)c(OC)c1 [Example 50, 3-methoxy-N-methyl-4-(3-((2-morpholinoethyl)amino)-6-(pyrazolo[1,5-a]pyrimidin-3-yl)-1H-pyrazolo[4,3-c]pyridin-1-yl)benzenesulfonamide]	≤ 5.01	≤ 5.01	≤ 5.01	5.01 to 50.1
COc1cc(NS(C)(=O)=O)ccc1-n1nc(NCCN2CCN(C)CC2)c2cnc(-c3cnn4cccnc34)cc21 [Example 38, N-(3-methoxy-4-(3-((2-(4-methylpiperazin-1-yl)ethyl)amino)-6-(pyrazolo[1,5-a]pyrimidin-3-yl)-1H-pyrazolo[4,3-c]pyridin-1-yl)phenyl)methanesulfonamide]	≤ 5.01	≤ 5.01	≤ 5.01	5.01 to 50.1
COc1cc(NS(=O)(=O)C2CC2)ccc1-n1nc(N[C@H]2C[C@@H](N(C)C)C2)c2cnc(-c3cnn4cccnc34)cc21 [Example 78, N-(4-(3-(((1s,3s)-3-(dimethylamino)cyclobutyl)amino)-6-(pyrazolo[1,5-a]pyrimidin-3-yl)-1H-pyrazolo[4,3-c]pyridin-1-yl)-3-methoxyphenyl)cyclopropanesulfonamide]	≤ 5.01	≤ 5.01	≤ 5.01	5.01 to 50.1
COc1cc(CNS(C)(=O)=O)ccc1-n1nc(C)c2cnc(-c3cnn4cccnc34)cc21 [Example 63, N-(3-methoxy-4-(3-methyl-6-(pyrazolo[1,5-a]pyrimidin-3-yl)-1H-pyrazolo[4,3-c]pyridin-1-yl)benzyl)methanesulfonamide]	≤ 5.01	≤ 5.01	≤ 5.01	5.01 to 50.1

Now from value to molecule:

IC50 [1] [nM]	IC50 [2] [nM]	IC50 [3] [nM]	IC50 [4] [nM]	Compound
≤ 5.01	≤ 5.01	≤ 5.01	5.01 to 50.1	CCCS(=O)(=O)Nc1ccc(-n2nc(NCCN3CCOCC3)c3cnc(Nc4ncc[nH]c4=O)cc32)c(OC(F)F)c1 [Example 89, N-(3-(difluoromethoxy)-4-(3-((2-morpholinoethyl)amino)-6-((3-oxo-3,4-dihydropyrazin-2-yl)amino)-1H-pyrazolo[4,3-c]pyridin-1-yl)phenyl)propane-1-sulfonamide]
≤ 5.01	≤ 5.01	≤ 5.01	5.01 to 50.1	CCCS(=O)(=O)Nc1ccc(-n2nc(NCCN3CCCCC3)c3cnc(Nc4ncc[nH]c4=O)cc32)c(OC)c1 [Example 88, N-(3-methoxy-4-(6-((3-oxo-3,4-dihydropyrazin-2-yl)amino)-3-((2-(piperidin-1-yl)ethyl)amino)-1H-pyrazolo[4,3-c]pyridin-1-yl)phenyl)propane-1-sulfonamide]
≤ 5.01	≤ 5.01	≤ 5.01	≤ 5.01	COc1cc(NS(C)(=O)=O)ccc1-n1nc(NCCN2C3CCC2COC3)c2cnc(Nc3ncc[nH]c3=O)cc21 [Example 90, N-(4-(3-((2-(3-oxa-8-azabicyclo[3.2.1]octan-8-yl)ethyl)amino)-6-((3-oxo-3,4-dihydropyrazin-2-yl)amino)-1H-pyrazolo[4,3-c]pyridin-1-yl)-3-methoxyphenyl)methanesulfonamide]
≤ 5.01	≤ 5.01	≤ 5.01	≤ 5.01	COc1cc(NS(C)(=O)=O)ccc1-n1nc(NCCN2CCOCC2)c2cnc(Nc3ncc[nH]c3=O)cc21 [Example 87, N-(3-methoxy-4-(3-((2-morpholinoethyl)amino)-6-((3-oxo-3,4-dihydropyrazin-2-yl)amino)-1H-pyrazolo[4,3-c]pyridin-1-yl)phenyl)methanesulfonamide]
≤ 5.01	≤ 5.01	≤ 5.01	≤ 5.01	COc1cc(CNS(C)(=O)=O)ccc1-n1nc(NCCN2CCOCC2)c2cnc(Nc3ncc[nH]c3=O)cc21 [Example 92, N-(3-methoxy-4-(3-((2-morpholinoethyl)amino)-6-((3-oxo-3,4-dihydropyrazin-2-yl)amino)-1H-pyrazolo[4,3-c]pyridin-1-yl)benzyl)methanesulfonamide]
